Source: article PMC7269486, “MK-571, a Cysteinyl Leukotriene Receptor 1 Antagonist, Inhibits Hepatitis C Virus Replication” (Antimicrobial Agents and Chemotherapy, 2020)
Values joined by “and” are separate entries in the source; they are usually repeats but may differ in a detail not shown here. Identical values can stand only once. “Also recorded” adds a separate entry of the source. Like-named read-outs stand apart in the source and are kept apart here.

What was measured:
[1] = tested on: HCV genotype 1b subgenomic replicon; assay: Anti-HCV activity in the subgenomic replicon model (HCV-SGR RNA by RT-qPCR in Huh7.5-SGR cells); assay type: cell-based, Hepatitis C virus; conditions: for effect on the anti-HCV activity of MK-571: compound added to MK-571 (10 or 50 μM); for effect on the anti-HCV activity of MK-571 / effect on HCV-SGR RNA levels / replication: increasing concentrations; for effect on HCV-SGR RNA levels / replication: compound alone; for effect of MRP-1 inhibitor on MK-571 anti-HCV activity: added to MK-571 (probenecid 1 mM), data not shown
Experimental: Plasmid I389-Neo/NS3-3′/5.1, which contains a neomycin resistance gene and an HCV genotype 1b subgenome, was kindly provided by Ralf Bartenschlager (University of Heidelberg, Heidelberg, Germany). This plasmid was transfected into Huh7.5 cells to generate Huh7.5-SGR cells stably harboring an HCV genotype 1b subgenomic replicon (SGR).
Huh7.5 cells stably harboring an HCV genotype 1b bicistronic replicon (I389-Neo/NS3-3′/5.1) were seeded at the density of 5,000 cells/well in a 96-well plate. The cells were treated for 48 h with the tested compounds diluted in complete DMEM containing 1% dimethyl sulfoxide (DMSO) with 0.5 mg/ml of G418. Total RNA was extracted using the RNeasy 96 kit (Qiagen, Hilden, Germany). HCV-SGR RNA levels were measured by reverse transcriptase quantitative PCR (RT-qPCR) using the TaqMan technology with HCV-specific primers (forward primer, 5′-CGC CCA AAC CAG AAT ACG A-3′; and reverse primer, 5′-AGATAGTACACCCTTTTGCCAGATG-3′) and a qPCR probe (5′-6-carboxyfluorescein [FAM]-CAA TGT GTC AGT CGG-6-carboxytetramethylrhodamine [TAMRA]-0.3′). The data were analyzed with the 2^−ΔΔ^CT method, with all samples normalized to glyceraldehyde-3-phosphate dehydrogenase (GAPDH) mRNA. All experiments were performed in triplicate. HCV-SGR RNA relative quantities were plotted against compound concentrations and fitted with a four-parameter logistic curve with SigmaPlot v11 software. EC50s were determined from the curves.

[2] = tested on: HCV-J6/JFH1 (genotype 2a/2a full-length infectious model); assay: Antiviral activity in the HCV infectious model (luciferase reporter); assay type: cell-based, Hepatitis C virus; conditions: Huh7.5 cells infected with J6/JFH1, increasing concentrations, 48 h after infection
Experimental: The anti-HCV activity of MK-571 was then confirmed in a chimeric genotype 2a/2a HCV full-length infectious model (HCV-J6/JFH1) containing a luciferase reporter gene. Huh7.5 cells were infected with HCV-J6/JFH1 in the presence of an increasing concentration of MK-571, and luciferase activity was quantified 48 h after infection. […] However, MK-571 anti-HCV activity appeared higher in the genotype 1b HCV-SGR than the genotype 2a HCV full-length infectious model (Fig. 2D).
Huh7.5 cells were incubated 24 h before infection. Then, cells were infected with HCV (J6/JFH1 strain) at an mutiplicity of infection (MOI) of 0.2 during 8 h in the presence of drugs. HCV-infected cells were washed with phosphate-buffered saline (PBS) and incubated for 48 h in fresh medium containing the drugs. Then, luciferase activity was measured and plotted against compound concentrations.

[3] = Cytotoxicity assay (CellTiter 96 AQueous One); assay type: cell-based; conditions: human
Experimental: Assessment of the compound cytotoxicity was performed with the CellTiter 96 AQueous One assay (Promega), according to the manufacturer’s instructions. Huh7.5 cells were seeded at a density of 5,000 cells/well in a 96-well plate and incubated 24 h before addition of increasing concentrations of the indicated compounds. After 48 h, cells were incubated 4 h in the presence of the CellTiter 96 AQueous One solution reagent, and absorbance was measured at 490 nm.

[4] = tested on: Huh7.5-SGR cells harboring HCV-SGR with neomycin resistance gene; assay type: cell-based, Hepatitis C virus; conditions: 100 μM MK-571, 2 weeks, no G418
Description: FIG 2 Anti-HCV activity of MK-571. (A) Dose-response curve and (B) fold decrease of MK-571 antiviral activity in Huh7.5 cells stably expressing an HCV genotype 1b subgenomic replicon. Data are shown as means ± SD from at least two independent experiments performed in triplicate. […]
We next examined HCV-SGR clearance during 2 weeks of treatment with MK-571. […]

[5] = Huh7.5 cells, 48 h, read-out: CC50 in Huh7.5 cells

With `CCCCC/C=C\C\C=C/C=C/C=C/[C@@H](SC[C@H](N)C(=O)NCC(=O)O)[C@@H](O)CCCC(=O)O` [LTD4] the “effect on the anti-HCV activity of MK-571” value ([1]; Huh7.5-SGR cells) was “completely reversed its antiviral effect; also recorded: reversed the antiviral effect of 50 μM of MK-571 in a dose-dependent manner”, the “concentration achieving complete reversion of the antiviral effect of MK-571” value ([1]; in the presence of 50 μM MK-571, Huh7.5-SGR cells) was 1 µM and the “effect on HCV-SGR RNA levels / replication” value ([1]; Huh7.5-SGR cells) was “did not exert any effect on HCV replication”.
With `CC(c1cc2ccccc2s1)N(O)C(N)=O` (stereo not shown) [zileuton] the “effect on HCV-SGR RNA levels / replication” value ([1]; Huh7.5-SGR cells) was “None of them affected HCV-SGR replication”.
For apigenin homodimer [APN], the “effect of MRP-1 inhibitor on MK-571 anti-HCV activity” value [1] was “lack of effect on MK-571 antiviral activity” and the “effect on HCV-SGR RNA levels” value ([1]; apigenin homodimer 0.1 μM alone, Huh7.5-SGR cells) was “had no effect on HCV replication; also recorded: none of these two compounds reduced HCV-SGR RNA levels; also recorded: lack of anti-HCV activity”.
With `CN(C)C(=O)CCSC(SCCC(=O)O)c1cccc(/C=C/c2ccc3ccc(Cl)cc3n2)c1` (stereo not shown) [MK-571] the “fold decrease of HCV-SGR RNA levels” value ([1]; 50 μM MK-571 alone, Huh7.5-SGR cells) was 12 fold and ~11 fold, the “fold increase of the anti-HCV effect of telaprevir” value ([1]; 50 μM MK-571 in combination with 1 μM telaprevir, Huh7.5-SGR cells) was “approximately 3 fold” and the “antiviral effect compared with telaprevir” value ([1]; 50 μM MK-571 vs 1 μM telaprevir, Huh7.5-SGR cells) was “equivalent to the effect of 1 μM of telaprevir”. The EC50 ([1]; Hepatitis C virus, Huh7.5, 48 h, read-out: EC50 for decrease of HCV-SGR RNA) was 9 ± 0.3 µM, the “maximum HCV RNA level reduction” value ([1]; Huh7.5-SGR cells, genotype 1b replicon) was ~1 log10 and the “effect on HCV-J6/JFH1 replication (luciferase activity)” value [2] was “dose-dependent decrease of HCV-J6/JFH1 RNA replication; also recorded: reduced the replication of the HCV full-length J6/JFH1 model in a dose-dependent manner”. The CC50 at 48 h [3, 5] was > 100 µM and the “cell growth in the absence of G418” value [4] was “cell growth was not significantly affected”.
In the case of `O=C(O)c1ccccc1Nc1cccc(OCc2ccc3ccccc3n2)c1` [SR2640], the “maximum increase of HCV-SGR RNA levels” value ([1]; SR2640 alone, at 20 μM, Huh7.5-SGR cells) is reported as 11 fold, the “effect on the anti-HCV activity of MK-571” value ([1]; Huh7.5-SGR cells) is reported as “completely reversed its antiviral effect; also recorded: not only reversed its anti-HCV activity but also increased HCV replication at the highest concentrations tested” and the “effect on HCV-SGR RNA levels / replication” value ([1]; Huh7.5-SGR cells) is reported as “increased HCV-SGR RNA levels in a dose-dependent manner”. It also gave a CC50 at 48 h [3, 5] of 33.4 ± 3.9 µM.
With `CCC(CC)(CC(=O)Nc1cccc(/C=C/c2nc(C3CCC3)cs2)c1)C(=O)O` [Cinalukast] the “effect on the anti-HCV activity of MK-571” value ([1]; Huh7.5-SGR cells) was “completely reversed its antiviral effect; also recorded: full reversion achieved at the highest dose tested”, the “effect on HCV-SGR RNA levels / replication” value ([1]; Huh7.5-SGR cells) was “modest proviral effect on HCV RNA replication” and the CC50 at 48 h [3, 5] was > 100 µM.
In the case of `CCC[C@H](NC(=O)[C@@H]1[C@H]2CCC[C@H]2CN1C(=O)[C@@H](NC(=O)[C@@H](NC(=O)c1cnccn1)C1CCCCC1)C(C)(C)C)C(=O)C(=O)NC1CC1` [Telaprevir], the CC50 at 48 h [3] is reported as > 20 µM.
With `CC(C)c1ccc2c(c1)c(SC(C)(C)C)c(CC(C)(C)C(=O)O)n2Cc1ccc(Cl)cc1` [MK-886] the “effect on HCV-SGR RNA levels / replication” value ([1]; Huh7.5-SGR cells) was “None of them affected HCV-SGR replication”.
For `CCCN(CCC)S(=O)(=O)c1ccc(C(=O)O)cc1` [probenecid], the “effect of MRP-1 inhibitor on MK-571 anti-HCV activity” value [1] was “did not modify its anti-HCV activity; also recorded: lack of effect on MK-571 antiviral activity” and the “effect on HCV-SGR RNA levels” value ([1]; probenecid 1 mM alone, Huh7.5-SGR cells) was “had no effect on HCV replication; also recorded: none of these two compounds reduced HCV-SGR RNA levels; also recorded: lack of anti-HCV activity”.
For `COc1cc(C(=O)NS(=O)(=O)c2ccccc2C)ccc1Cc1cn(C)c2ccc(NC(=O)OC3CCCC3)cc12` [Zafirlukast], the “effect on the anti-HCV activity of MK-571” value ([1]; Huh7.5-SGR cells) was “completely reversed its antiviral effect; also recorded: full reversion achieved at the highest dose tested”, the “effect on HCV-SGR RNA levels / replication” value ([1]; Huh7.5-SGR cells) was “modest proviral effect on HCV RNA replication” and the CC50 at 48 h [3, 5] was > 100 µM.
